Assay results reported in US10889572B2, “Reactive oxygen species scavengers and use for treating diseases” (XW LABORATORIES INC., priority 2017, dated 2021).
Where a name gives a salt, the structure may show the parent alone.

test system: HT-1080 (fibrosarcoma) cells; experiment: Primary screening by ferroptosis assay (Erastin-induced, cell viability, CellTiter-Glo); assay type: cell-based; conditions: HT-1080 cells, 30 hours, % remaining activity, read-out: EC50, Inhibition for Ferroptosis in HT-1080 Cell
Procedure: Cell Lines and Media: HT-1080 (fibrosarcoma) cells were obtained from American Type Culture Collection. Cells were grown in EMEM media, 10% Heat-Inactivated FBS, and penicillin-streptomycin mix (Invitrogen). Cells were maintained at 37° C. and 5% CO2 in a tissue culture incubator.
Cell Viability Assay: Seed 10,000 cell/well of HT-1080 cells with 195 μL growth media in black and clear bottom 96-well plates (Cat #Corning 3904) and allow cells to adhere overnight. The next day, dilute test compound by 2-fold dilution into 12 points with medium containing 400 μM Erastin. Transfer 5 μL of compounds solution into growth medium in triplicated wells. 30 hours later, add Cell Titer-Glo® Luminescent cell viability assay reagent (Cat #, Promega G8081) to measure HT-1080 cell viability according to the manufacture protocol. Briefly, aspirate 100 μL medium, and add 50 μL CellTiter-Glo® Luminescent reagent to each well and incubated for 30 minutes at room temperature to stabilize the Luminescent signal. Seal the plates and centrifuged for 1 minute at 1,000 rpm to remove bubbles. Shake the plates for 1 minute on an orbital shaker. Read the plate to detect Luminescent signal with EnSpire Multimode Plate Reader (PerkinElmer). The remaining activity % is used to evaluate Erastin induced ferroptosis in HT-1080 cells and expressed as the following formula: % Remaining Activity−100×[(Sample−Backgroundavg)/(Vehicle−Background avg)]
Sample: Readout from the test compound
Vehicle: Readout from the vehicle sample
Background: Readout from the Erastin only treatment
Dose response curve is graphed by using the non-linear regression analysis (formula equation 201) in XLFit (Excel add-in software) for the average % remaining activity from triplicates, and the EC50 values is then calculated. In this anti-ferroptosis assay, ferrostatin-1, and XJB-5-131 are included as reference. The acceptance criteria were set based on historical result, mean±2.58*SD in logarithmic scale, meanwhile Z′>0.5.

In order of falling EC50:
1. CC(C)C[C@@H](/C=C/[C@H](Cc1ccccc1)C(=O)N1CCC[C@H]1C(=O)N[C@H](C(=O)N[C@@H](CCCNC(=O)OCc1ccccc1)C(=O)NC1CC(C)(C)N([O])C(C)(C)C1)C(C)C)NC(=O)OC1CC(C)(C)N([O])C(C)(C)C1 [Example VIII, 1-Oxyl-2,2,6,6-tetramethylpiperidin-4-yl N-[(4S,5E,7S)-7-benzyl-8-[(2S)—2-{[(1S)—1-{[(1S)—4-{[(benzyloxy)carbonyl]amino}-1-[(1-oxyl-2,2,6,6-tetramethylpiperidin-4-yl)carbamoyl]butyl]carbamoyl}-2-methylpropyl]carbamoyl}pyrrolidin-1-yl]-2-methyl-8-oxooct-5-en-4-yl]carbamate]  266 nM
2. CC(C)C[C@@H](/C=C/[C@H](Cc1ccccc1)C(=O)N1CCC[C@H]1C(=O)N[C@@H](CCCNC(=O)OC1CC(C)(C)N(O)C(C)(C)C1)C(=O)NC(C)C)NC(=O)OC(C)(C)C [Example XXXXV]  144 nM
3. COC(=O)[C@H](CCCNC(=O)OC1CC(C)(C)N(O)C(C)(C)C1)NC(=O)[C@@H](NC(=O)[C@@H]1CCCN1C(=O)[C@H](/C=C/[C@H](CC(C)C)NC(=O)OC(C)(C)C)Cc1ccccc1)C(C)C [XXXIX, (S)-methyl 2-((S)-2-((S)-1-((2S,5S,E)-2-benzyl-5-((tert-butoxycarbonyl)amino)-7-methyloct-3-enoyl)pyrrolidine-2-carboxamido)-3-methylbutanamido)—5-((((1-hydroxy-2,2,6,6-tetramethylpiperidin-4-yl)oxy)carbonyl)amino)pentanoate]  142 nM
4. CC(C)C[C@@H](/C=C/[C@H](Cc1ccccc1)C(=O)N1CCC[C@H]1C(=O)N[C@@H](CCCNC(=O)OCc1ccccc1)C(=O)OC1CC(C)(C)N(O)C(C)(C)C1)NC(=O)OC(C)(C)C [Example XXXXI, (S)-1-hydroxy-2,2,6,6-tetramethylpiperidin-4-yl 2-((S)-1-((2S,5S,E)-2-benzyl-5-((tert-butoxycarbonyl)amino)-7-methyloct-3-enoyl)pyrrolidine-2-carboxamido)-5-(((benzyloxy)carbonyl)amino)pentanoate]  139 nM

same assay, conditions: Homo sapiens, HT-1080, 30 h, HT-1080 cells, % remaining activity, read-out: EC50, Inhibition for Ferroptosis in HT-1080 Cell

First: CC(C)C[C@@H](/C=C/[C@H](Cc1ccccc1)C(=O)N1CCC[C@H]1C(=O)N[C@H](CCCCNC(=O)OC1CC(C)(C)N(O)C(C)(C)C1)C(=O)O)NC(=O)OC(C)(C)C [XXXIV, (2R)—2-{[(2S)-1-[(2S,3E,5S)-2-benzyl-5-{[(tert-butoxy)carbonyl]amino}-7-methyloct-3-enoyl]pyrrolidin-2-yl]formamido}-6-({[(1-oxyl-2,2,6,6-tetramethylpiperidin-4-yl)oxy]carbonyl}amino)hexanoic acid]
Second: CC(C)C[C@@H](/C=C/[C@H](Cc1ccccc1)C(=O)N1CCC[C@H]1C(=O)N[C@H](CCCCNC(=O)OC1CC(C)(C)N(O)C(C)(C)C1)C(=O)OC(C)C)NC(=O)OC(C)(C)C [Example XXXIII, Propan-2-yl (2R)—2-{[(2S)-1-[(2S,3E,5S)-2-benzyl-5-{[(tert-butoxy)carbonyl]amino}-7-methyloct-3-enoyl]pyrrolidin-2-yl]formamido}-6-({[(1-oxyl-2,2,6,6-tetramethylpiperidin-4-yl)oxy]carbonyl}amino)hexanoate]
The EC50 of the first is higher: greater than 4000 nM for the first, 291 nM for the second.

First: CC(C)C[C@@H](/C=C/[C@H](Cc1ccccc1)C(=O)N1CCC[C@@H]1C(=O)N[C@@H](CCCNC(=O)OCc1ccccc1)C(=O)NC1CC(C)(C)N(O)C(C)(C)C1)NC(=O)OC(C)(C)C [Example XVII, Benzyl N-[(4S)—4-{[(2R)-1-[(2S,3E,5S)-2-benzyl-5-{[(tert-butoxy)carbonyl]amino}-7-methyloct-3-enoyl]pyrrolidin-2-yl]formamido}-4-[(1-hydroxy-2,2,6,6-tetramethylpiperidin-4-yl)carbamoyl]butyl]carbamate]
Second: CC(C)C[C@@H](/C=C/[C@H](Cc1ccccc1)C(=O)N1CCC[C@H]1C(=O)N[C@@H](C)C(=O)N[C@@H](CCCNC(=O)OCc1ccccc1)C(=O)NC1CC(C)(C)N(O)C(C)(C)C1)NC(=O)OC(C)(C)C [Example XIV, Benzyl N-[(4S)-4-[(2S)—2-{[(2S)-1-[(2S,3E,5S)-2-benzyl-5-{[(tert-butoxy)carbonyl]amino}-7-methyloct-3-enoyl]pyrrolidin-2-yl]formamido}propanamido]-4-[(1-hydroxy-2,2,6,6-tetramethylpiperidin-4-yl)carbamoyl]butyl]carbamate]
The EC50 of the first is 1.8-fold lower: 284 nM for the first, 515 nM for the second.

Going from `CC(C)C[C@@H](/C=C/[C@H](Cc1ccccc1)C(=O)N1CCC[C@H]1C(=O)N[C@@H](CCCNC(=O)OCc1ccccc1)C(=O)OC1CC(C)(C)N(O)C(C)(C)C1)NC(=O)OC(C)(C)C` [Example XXXX, (S)-1-Oxyl-2,2,6,6-tetramethylpiperidin-4-yl 2-((S)-1-((2S,5S,E)-2-benzyl-5-((tert-butoxycarbonyl)amino)-7-methyloct-3-enoyl)pyrrolidine-2-carboxamido)-5-(((benzyloxy)carbonyl)amino)pentanoate] to `CC(C)C[C@@H](/C=C/C(Cc1ccccc1)C(=O)N1CCC[C@H]1C(=O)N[C@H](C(=O)N[C@@H](CCCNC(=O)OCc1ccccc1)C(=O)NC1CC(C)(C)N(O)C(C)(C)C1)C1CC1)NC(=O)OC(C)(C)C` (stereo in doubt) [Example XII, Benzyl N-[(4S)-4-[(2S)—2-{[(2S)-1-[(2R,3E,5S)-2-benzyl-5-{[(tert-butoxy)carbonyl]amino}-7-methyloct-3-enoyl]pyrrolidin-2-yl]formamido}-2-cyclopropylacetamido]-4-[(1-hydroxy-2,2,6,6-tetramethylpiperidin-4-yl)carbamoyl]butyl]carbamate], the EC50 rises from 140 nM to 481 nM (3.4-fold). The first is the more potent here.

First: CC(C)C[C@@H](/C=C/[C@H](Cc1ccccc1)C(=O)N1CCC[C@@H]1C(=O)NC1CC(C)(C)N(O)C(C)(C)C1)NC(=O)OC(C)(C)C [Example VI, tert-Butyl N-[(4S,5E,7S)-7-benzyl-8-[(2R)-2-[(1-hydroxy-2,2,6,6-tetramethylpiperidin-4-yl)carbamoyl]pyrrolidin-1-yl]-2-methyl-8-oxooct-5-en-4-yl]carbamate]
Second: CC(C)C[C@@H](/C=C/[C@H](Cc1ccccc1)C(=O)N1CCC[C@H]1C(=O)N[C@@H](CCCCNC(=O)OC1CC(C)(C)N(O)C(C)(C)C1)C(=O)NC(C)C)NC(=O)OC(C)(C)C [Example XXXVII, tert-Butyl N-[(4S,5E,7S)-7-benzyl-8-[(2S)—2-{[(1S)-5-({[(1-oxyl-2,2,6,6-tetramethylpiperidin-4-yl)oxy]carbonyl}amino)-1-[(propan-2-yl)carbamoyl]pentyl]carbamoyl}pyrrolidin-1-yl]-2-methyl-8-oxooct-5-en-4-yl]carbamate]
The EC50 of the first is 5.1-fold higher: 1020 nM for the first, 201 nM for the second. The second is the more potent here.

same assay, conditions: Homo sapiens, HT-1080 cells, 30 hours, % remaining activity, read-out: EC50, Inhibition for Ferroptosis in HT-1080 Cell

`CC(C)C[C@H](N)/C=C/[C@H](Cc1ccccc1)C(=O)N1CCC[C@H]1C(=O)N[C@H](C(=O)N[C@@H](CCCNC(=O)OCc1ccccc1)C(=O)NC1CC(C)(C)N(O)C(C)(C)C1)C(C)C` [Example XV, Benzyl N-[(4S)-4-[(2S)—2-{[(2S)-1-[(2S,3E,5S)-5-amino-2-benzyl-7-methyloct-3-enoyl]pyrrolidin-2-yl]formamido}-3-methylbutanamido]-4-[(1-hydroxy-2,2,6,6-tetramethylpiperidin-4-yl)carbamoyl]butyl]carbamate trifluoroacetic acid salt] showed an EC50 of 2230 nM.
